How the values were obtained:
cocklebur = assay: Test B pre/postemergence cocklebur; type: in vivo, Xanthium strumarium
In short: (§1)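 Test chemicals in a non-phytotoxic solvent mixture with surfactant were sprayed preemergence onto planted seeds and postemergence onto plants 2 to 18 cm tall (1- to 4-leaf stage). After twelve to sixteen days in a greenhouse, injury was visually rated against untreated controls from 0 (no effect) to 10 (complete control).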

giant foxtail = assay: Test B pre/postemergence giant foxtail; type: in vivo, Setaria faberii
In short: as §1

morningglory = assay: Test B pre/postemergence morningglory; type: in vivo, Ipomoea hederacea
In short: as §1

bamyardgrass = assay: Test B flood test barnyardgrass; type: in vivo, Echinochloa crus-galli; conditions: for Plant response rating, Barnyardgrass (0 to 10 scale, 0 is no effect, 10 is complete control): Rate 62 g/ha; for Plant response rating, Barnyardgrass (0 to 10 scale, 0 is no effect, 10 is complete control) / Barnyardgrass plant response rating (0 to 10 scale, 0 is no effect, 10 is complete control): visual evaluation after twelve to sixteen days; for Barnyardgrass plant response rating (0 to 10 scale, 0 is no effect, 10 is complete control): Rate 125 g/ha, under heading Pre-emergence
In short: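 Each value is a visual injury score relative to controls, with 10 meaning complete control and 0 no effect. Evaluation took place twelve to sixteen days after the 2-leaf-stage plants were treated and kept in the greenhouse.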

[1] = Postemergence, Rate 250 g/ha, scale 0 to 10
[2] = Postemergence, Rate 500 g/ha, scale of 0 to 10 where 0 is no effect and 10 is complete control
[3] = Preemergence, Rate 62 g/ha, scale of 0 to 10 where 0 is no effect and 10 is complete control
[4] = Preemergence, Rate 125 g/ha, scale of 0 to 10 where 0 is no effect and 10 is complete control
[5] = Preemergence, Rate 250 g/ha, scale 0 to 10, 0 is no effect, 10 is complete control
[6] = Preemergence, Rate 500 g/ha, scale 0 to 10, 0 is no effect, 10 is complete control
[7] = Rate 62 g/ha, Postemergence, scale 0 to 10, 0 no effect, 10 complete control
[8] = Rate 125 g/ha, Postemergence, scale 0 to 10, 0 is no effect, 10 is complete control
[9] = flood test species, Pre-emergence
[10] = Rate 250 g/ha, Pre-emergence (flood test species), scale 0 to 10, 0 is no effect, 10 is complete control
[11] = Rate 500 g/ha, Pre-emergence, flood test species, scale 0 to 10 (0 no effect, 10 complete control)
[12] = Postemergence, Rate 125 g/ha, scale 0 to 10, 0 is no effect, 10 is complete control
[13] = Preemergence, Rate 125 g/ha, scale 0 to 10, 0 is no effect, 10 is complete control
[14] = Postemergence, Rate 31 g/ha, visual rating, scale 0 to 10 (0 no effect, 10 complete control)
[15] = Preemergence, Rate 31 g/ha, visual rating, scale 0 to 10 (0 no effect, 10 complete control)
[16] = Postemergence, Rate 62 g/ha, scale 0 to 10, 0 is no effect, 10 is complete control
[17] = Postemergence, Rate 125 g/ha, scale of 0 to 10 where 0 is no effect and 10 is complete control
[18] = Postemergence, Rate 250 g/ha, scale of 0 to 10, 0 is no effect, 10 is complete control
[19] = Preemergence, Rate 62 g/ha, scale 0 to 10 (0 no effect, 10 complete control)
[20] = Preemergence, Rate 250 g/ha, scale 0 to 10 (0 no effect, 10 complete control)
[21] = Preemergence, Rate 500 g/ha, scale of 0 to 10 where 0 is no effect and 10 is complete control
[22] = Rate 500 g/ha, Pre-emergence section of Table B, 0 to 10 scale (0 no effect, 10 complete control)

## CC(C)N(C(=O)n1oc(=O)n(CC#N)c1=O)c1ccc(Cl)cc1 [Compound 476]
cocklebur; [1]
  Cocklebur plant response rating: 0
cocklebur; [2]
  Cocklebur plant response rating: 0
cocklebur; [3]
  Plant response rating, Cocklebur: 0
cocklebur; [4]
  Plant response rating, Cocklebur: 0
cocklebur; [5]
  Cocklebur plant response rating: 0
cocklebur; [6]
  Cocklebur plant response rating: 0
cocklebur; [7]
  Cocklebur plant response rating: 0
cocklebur; [8]
  Cocklebur plant response rating: 0
Giant foxtail; [1]
  Giant foxtail plant response rating: 0
Giant foxtail; [2]
  Giant foxtail plant response rating: 0
Giant foxtail; [3]
  Plant response rating, Giant foxtail: 0
Giant foxtail; [4]
  Plant response rating, Giant foxtail: 0
Giant foxtail; [5]
  Giant foxtail plant response rating: 0
Giant foxtail; [6]
  Giant foxtail plant response rating: 0
Giant foxtail; [7]
  Giant foxtail plant response rating: 0
Giant foxtail; [8]
  Giant foxtail plant response rating: 0
morningglory; [1]
  Morningglory plant response rating: 0
morningglory; [3]
  Plant response rating, Morningglory: 0
morningglory; [4]
  Plant response rating, Morningglory: 0
morningglory; [5]
  Morningglory plant response rating: 0
morningglory; [6]
  Morningglory plant response rating: 0
morningglory; [7]
  Morningglory plant response rating: 0
morningglory; [8]
  Morningglory plant response rating: 0
bamyardgrass; [9]
  Plant response rating, Barnyardgrass (0 to 10 scale, 0 is no effect, 10 is complete control): 0
bamyardgrass; flood test species
  Barnyardgrass plant response rating (0 to 10 scale, 0 is no effect, 10 is complete control): 0
bamyardgrass; [10]
  Barnyardgrass plant response rating: 0
bamyardgrass; [11]
  Barnyardgrass plant response rating: 0

## CC(C)N(C(=O)n1oc(=O)n(Cc2cnc(Cl)s2)c1=O)c1ccc(F)cc1 [Compound 482]
cocklebur; [12]
  Cocklebur plant response rating: 0
cocklebur; [1]
  Cocklebur plant response rating: 0
cocklebur; [2]
  Cocklebur plant response rating: 0
cocklebur; [3]
  Plant response rating, Cocklebur: 0
cocklebur; [13]
  Cocklebur plant response rating: 0
cocklebur; [5]
  Cocklebur plant response rating: 0
cocklebur; [6]
  Cocklebur plant response rating: 0
cocklebur; [7]
  Cocklebur plant response rating: 0
Giant foxtail; [12]
  Giant foxtail plant response rating: 0
Giant foxtail; [1]
  Giant foxtail plant response rating: 0
Giant foxtail; [2]
  Giant foxtail plant response rating: 2
Giant foxtail; [3]
  Plant response rating, Giant foxtail: 1
Giant foxtail; [13]
  Giant foxtail plant response rating: 6
Giant foxtail; [5]
  Giant foxtail plant response rating: 8
Giant foxtail; [6]
  Giant foxtail plant response rating: 9
Giant foxtail; [7]
  Giant foxtail plant response rating: 0
morningglory; [12]
  Morningglory plant response rating: 7
morningglory; [1]
  Morningglory plant response rating: 8
morningglory; [3]
  Plant response rating, Morningglory: 0
morningglory; [13]
  Morningglory plant response rating: 0
morningglory; [5]
  Morningglory plant response rating: 0
morningglory; [6]
  Morningglory plant response rating: 0
morningglory; [7]
  Morningglory plant response rating: 5
bamyardgrass; [9]
  Plant response rating, Barnyardgrass (0 to 10 scale, 0 is no effect, 10 is complete control): 0
bamyardgrass; flood test species
  Barnyardgrass plant response rating (0 to 10 scale, 0 is no effect, 10 is complete control): 0
bamyardgrass; [10]
  Barnyardgrass plant response rating: 0
bamyardgrass; [11]
  Barnyardgrass plant response rating: 0

## CC(C)N(C(=O)n1oc(=O)n(CC[N+](=O)[O-])c1=O)c1ccc(Cl)cc1 [Compound 483]
cocklebur; [14]
  Cocklebur plant response rating: 0
cocklebur; [12]
  Cocklebur plant response rating: 0
cocklebur; [1]
  Cocklebur plant response rating: 0
cocklebur; [15]
  Cocklebur plant response rating: 0
cocklebur; [3]
  Plant response rating, Cocklebur: 0
cocklebur; [13]
  Cocklebur plant response rating: 0
cocklebur; [5]
  Cocklebur plant response rating: 0
cocklebur; [7]
  Cocklebur plant response rating: 0
Giant foxtail; [14]
  Giant foxtail plant response rating: 0
Giant foxtail; [12]
  Giant foxtail plant response rating: 0
Giant foxtail; [1]
  Giant foxtail plant response rating: 0
Giant foxtail; [15]
  Giant foxtail plant response rating: 0
Giant foxtail; [3]
  Plant response rating, Giant foxtail: 0
Giant foxtail; [13]
  Giant foxtail plant response rating: 0
Giant foxtail; [5]
  Giant foxtail plant response rating: 0
Giant foxtail; [7]
  Giant foxtail plant response rating: 0
morningglory; [14]
  Morningglory plant response rating: 0
morningglory; [12]
  Morningglory plant response rating: 0
morningglory; [1]
  Morningglory plant response rating: 0
morningglory; [3]
  Plant response rating, Morningglory: 0
morningglory; [13]
  Morningglory plant response rating: 0
morningglory; [5]
  Morningglory plant response rating: 0
morningglory; [7]
  Morningglory plant response rating: 0
bamyardgrass; Rate 31 g/ha, Pre-emergence section (flood test species), scale 0 to 10
  Barnyardgrass plant response rating: 0
bamyardgrass; [9]
  Plant response rating, Barnyardgrass (0 to 10 scale, 0 is no effect, 10 is complete control): 0
bamyardgrass; flood test species
  Barnyardgrass plant response rating (0 to 10 scale, 0 is no effect, 10 is complete control): 0
bamyardgrass; [10]
  Barnyardgrass plant response rating: 0

## CC(C)N(C(=O)n1oc(=O)n(CNC(=O)c2ccccc2)c1=O)c1ccc(F)cc1F [Compound 619]
cocklebur; [16]
  Plant response rating, Cocklebur: 0
cocklebur; [17]
  Plant response rating, Cocklebur: 0
cocklebur; [18]
  Cocklebur plant response rating: 0
cocklebur; [2]
  Plant response rating, Cocklebur: 0
cocklebur; [19]
  Cocklebur plant response rating: 0
cocklebur; [4]
  Cocklebur plant response rating: 0
cocklebur; [20]
  Plant response rating, Cocklebur: 0
cocklebur; [21]
  Plant response rating, Cocklebur: 0
Giant foxtail; [16]
  Plant response rating, Giant foxtail: 0
Giant foxtail; [17]
  Plant response rating, Giant foxtail: 0
Giant foxtail; [18]
  Giant foxtail plant response rating: 0
Giant foxtail; [2]
  Plant response rating, Giant foxtail: 3
Giant foxtail; [19]
  Giant foxtail plant response rating: 0
Giant foxtail; [4]
  Giant foxtail plant response rating: 3
Giant foxtail; [20]
  Plant response rating, Giant foxtail: 7
Giant foxtail; [21]
  Plant response rating, Giant foxtail: 8
morningglory; [16]
  Plant response rating, Morningglory: 0
morningglory; [17]
  Plant response rating, Morningglory: 1
morningglory; [18]
  Morningglory plant response rating: 1
morningglory; [2]
  Plant response rating, Morningglory: 1
morningglory; [19]
  Morningglory plant response rating: 0
morningglory; [4]
  Morningglory plant response rating: 0
morningglory; [20]
  Plant response rating, Morningglory: 0
morningglory; [21]
  Plant response rating, Morningglory: 0
bamyardgrass; [9]
  Plant response rating, Barnyardgrass (0 to 10 scale, 0 is no effect, 10 is complete control): 0
bamyardgrass; flood test species
  Barnyardgrass plant response rating (0 to 10 scale, 0 is no effect, 10 is complete control): 0
bamyardgrass; [10]
  Barnyardgrass plant response rating: 0
bamyardgrass; [22]
  Barnyardgrass plant response rating: 0

## CC(=O)NCn1c(=O)on(C(=O)N(c2ccccc2)C(C)C)c1=O [Compound 621]
cocklebur; [16]
  Plant response rating, Cocklebur: 0
cocklebur; [17]
  Plant response rating, Cocklebur: 0
cocklebur; [18]
  Cocklebur plant response rating: 0
cocklebur; [2]
  Plant response rating, Cocklebur: 0
cocklebur; [19]
  Cocklebur plant response rating: 0
cocklebur; [4]
  Cocklebur plant response rating: 0
cocklebur; [20]
  Plant response rating, Cocklebur: 0
cocklebur; [21]
  Plant response rating, Cocklebur: 0
Giant foxtail; [16]
  Plant response rating, Giant foxtail: 0
Giant foxtail; [17]
  Plant response rating, Giant foxtail: 0
Giant foxtail; [18]
  Giant foxtail plant response rating: 1
Giant foxtail; [2]
  Plant response rating, Giant foxtail: 7
Giant foxtail; [19]
  Giant foxtail plant response rating: 0
Giant foxtail; [4]
  Giant foxtail plant response rating: 7
Giant foxtail; [20]
  Plant response rating, Giant foxtail: 7
Giant foxtail; [21]
  Plant response rating, Giant foxtail: 10
morningglory; [16]
  Plant response rating, Morningglory: 1
morningglory; [17]
  Plant response rating, Morningglory: 2
morningglory; [18]
  Morningglory plant response rating: 2
morningglory; [2]
  Plant response rating, Morningglory: 8
morningglory; [19]
  Morningglory plant response rating: 0
morningglory; [4]
  Morningglory plant response rating: 0
morningglory; [20]
  Plant response rating, Morningglory: 0
morningglory; [21]
  Plant response rating, Morningglory: 0
bamyardgrass; [9]
  Plant response rating, Barnyardgrass (0 to 10 scale, 0 is no effect, 10 is complete control): 0
bamyardgrass; flood test species
  Barnyardgrass plant response rating (0 to 10 scale, 0 is no effect, 10 is complete control): 0
bamyardgrass; [10]
  Barnyardgrass plant response rating: 0
bamyardgrass; [22]
  Barnyardgrass plant response rating: 0

## CC(=O)N(C)CCn1c(=O)on(C(=O)N(c2ccc(F)cc2)C(C)C)c1=O [Compound 625]
cocklebur; [16]
  Plant response rating, Cocklebur: 0
cocklebur; [17]
  Plant response rating, Cocklebur: 0
cocklebur; [18]
  Cocklebur plant response rating: 0
cocklebur; [2]
  Plant response rating, Cocklebur: 0
cocklebur; [19]
  Cocklebur plant response rating: 0
cocklebur; [4]
  Cocklebur plant response rating: 0
cocklebur; [20]
  Plant response rating, Cocklebur: 0
cocklebur; [21]
  Plant response rating, Cocklebur: 0
Giant foxtail; [16]
  Plant response rating, Giant foxtail: 0
Giant foxtail; [17]
  Plant response rating, Giant foxtail: 3
Giant foxtail; [18]
  Giant foxtail plant response rating: 5
Giant foxtail; [2]
  Plant response rating, Giant foxtail: 9
Giant foxtail; [19]
  Giant foxtail plant response rating: 6
Giant foxtail; [4]
  Giant foxtail plant response rating: 9
Giant foxtail; [20]
  Plant response rating, Giant foxtail: 10
Giant foxtail; [21]
  Plant response rating, Giant foxtail: 10
morningglory; [16]
  Plant response rating, Morningglory: 0
morningglory; [17]
  Plant response rating, Morningglory: 1
morningglory; [18]
  Morningglory plant response rating: 1
morningglory; [2]
  Plant response rating, Morningglory: 2
morningglory; [19]
  Morningglory plant response rating: 0
morningglory; [4]
  Morningglory plant response rating: 0
morningglory; [20]
  Plant response rating, Morningglory: 2
morningglory; [21]
  Plant response rating, Morningglory: 3
bamyardgrass; [9]
  Plant response rating, Barnyardgrass (0 to 10 scale, 0 is no effect, 10 is complete control): 0
bamyardgrass; flood test species
  Barnyardgrass plant response rating (0 to 10 scale, 0 is no effect, 10 is complete control): 0
bamyardgrass; [10]
  Barnyardgrass plant response rating: 0
bamyardgrass; [22]
  Barnyardgrass plant response rating: 0

Source: patent publication US6737383B1, “Herbicidal oxadiazolidines” (priority 1999, dated 2004)
